Measurements: US7678884B2, “Biologically active peptide and agent containing the same” (Seikagaku Corporation, priority 2003, dated 2010)
Ends that are not written are not given here.

Assays:
PDL cells = assay: Cell differentiation of PDL cells (alkaline phosphatase activity, Bessey-Lowry method); format: cell-based, human; settings: for ALP activity increasing effect on PDL cells relative to BMP2: at confluent state and one week after (FIG. 5, FIG. 6), comparison with BMP2
From the text: PDL cells were isolated from a healthy premolar carefully extracted from a patient who visited a hospital to extract teeth for orthodontic treatment so that periodontal ligament should not be damaged as far as possible, and cultured. The extracted tooth was washed with sterilized physiological saline and phosphate-buffered saline (PBS, Nissui), and then periodontal ligament existing in ⅓ of the tooth root at the center was scraped off with a sharp knife. The pieces of periodontal ligament were transferred to a plastic plate and minced into small fragments using a round-blade knife. Tissue fragments were left standing in a plate having a diameter of 35 mm (FALCON) and cultured in Dulbecco's modified Eagle medium (DMEM, Nissui) containing antibiotics (100 U/ml of penicillin G, 100 μg/ml of streptomycin and 250 μg/ml of gentamicin) and 10% fetal bovine serum (FBS, EQUITECH-BIO) at 37° C. under 5% CO2. Then, cells released from the periodontal ligament tissue fragments were subcultured under the same conditions, and the 3rd to 5th generation cells were used for experiments. • (ii) Mouse-derived Osteoblasts
(§1) As an index of cell differentiation, alkaline phosphatase (ALP) activity of cells was determined. Cells were inoculated in a 24-well culture plate at a ratio of 5×10^3 cells/well, added with the peptide (a) at various concentrations and cultured in DMEM or αMEM containing 2% FBS. One week after the time point when the cells reached a confluent state, ALP activity was determined by the following enzymochemical method (Bessey-Lowry method, Bessey O A, Lowry O H and Brock M J, A method for the rapid determination of alkaline phosphatase with five cubic millimeter of serum, J. Biol. Chem., 164:321-329, 1946).
(§2) The cultured cells were washed with PBS and then disrupted in 10 mM Tris-HCl buffer (pH 7.4, 500 μl) for 40 seconds by using an ultrasonic homogenizer (Handy Sonic model UR-20P, Tomy Seiko) and stirred. Then, 25 μl of this sample liquid was added to 125 μl of ALP buffer (0.1 M carbonate buffer, pH 9.8, 6.7 mM p-nitrophenyl phosphate, 2 mM MgCl2) and incubated at 37° C. for 30 minutes. The reaction was terminated by addition of 125 μl of 0.2 N NaOH, and absorbance was measured at 405 nm by using a microplate reader (Model 550, Bio-Rad Laboratories).
Further, the ALP activity in DMEM containing 2% FBS and DMEM or αMEM containing 2% FBS added with peptide (c) at various concentrations was also similarly examined. The symbol “cont” in FIG. 4 indicates the results for the cells cultured in DMEM containing 2% FBS alone, “PN” indicates the results for the cells cultured in the medium added only with the peptide (a), and “PC” indicates the results for the cells cultured in the medium added only with the peptide (c). In FIG. 4, “pg” and “ng” represent “pg/ml” and “ng/ml,” respectively.
Further, in addition to the peptide (a) (derived from swine), the human-derived peptide (b) and BMP were similarly examined. The results of ALP activity measurement performed when the cells reached a confluent state are shown in FIG. 5, and the results of ALP activity measurement performed one week after the confluent state was attained are shown in FIG. 6. The symbol “cont” in the figures indicates the results for the cells cultured in DMEM containing 2% FBS alone, “B” indicates the results for the cells cultured in the medium added only with BMP2, “PN” indicates the results for the cells cultured in the medium added only with the peptide (a), and “HN” indicates the results for the cells cultured in the medium added only with the peptide (b) In the figures, the unit of numerical values shown after “B,” “PN” and “HN” is “ng/ml.”

MC3T3 cells = assay: Cell differentiation of MC3T3 cells (ALP activity); format: cell-based, mouse; settings: for cell differentiation promoting effect (ALP activity) on MC3T3 cells: at confluent state and one week after (FIG. 9, FIG. 10)
Experimental: As mouse-derived osteoblasts, cells of the MC3T3 cell strain or ST2 cell strain (purchased from Riken Cell Bank) were used. • (iii) Rat Femur Bone Marrow-derived Mesenchymal Stem Cells (BMMSC)
as §1, §2
Further, the peptides (a) and (b) were similarly examined by using the MC3T3 cells. ALP activity determined when the cells reached a confluent state is shown in FIG. 9, and ALP activity determined one week after the confluent state was attained is shown in FIG. 10. The symbol “cont” in the figures indicates the results for the cells cultured in αMEM containing 2% FBS alone, “PN” indicates the results for the cells cultured in the medium added only with the peptide (a), and “HN” indicates the results for the cells cultured in the medium added only with the peptide (b). Further, “ng” in the figures represents “ng/ml.” […]

OCCM30 cells = assay: Cell differentiation of OCCM30 cells (ALP activity); format: cell-based, mouse; settings: DMEM containing 2% FBS; versus control (FIG. 11)
Experimental: As mouse-derived cementoblasts, cells of the OCCM30 cell strain (Bone, 1999 Jul., 25(1):39-47) were used. This cell strain was provided from Professor Somerman of School of Dentistry University of Washington.
as §1
as §2, with “Laboratories). […]” for “Laboratories).”

[1] = measured at confluent state and one week after (FIG. 5, FIG. 6), versus control

Sequence	ALP activity increasing effect on PDL cells relative to BMP2 (PDL cells)	ALP activity of the PDL cells (PDL cells; [1])	ALP activity of the PDL cells (PDL cells; peptide at various concentrations, 2% FBS medium, one week after confluent state, versus control (FIG. 4))	cell differentiation promoting effect (ALP activity) on MC3T3 cells (MC3T3 cells)	cell differentiation promoting effect (ALP activity) on OCCM30 cells (OCCM30 cells)	cell differentiation promoting effect (ALP activity) on the MC3T3 cell strain (MC3T3 cells; final concentration of 100 ng/ml, versus control (FIG. 12))
VPAFPRQPGTPGVASL [Peptide (a)]	comparable to or higher than that of BMP2	significantly increased	significantly increased	significant cell differentiation promoting effect	significant cell differentiation promoting effect	–
VPFFPQQSGTPGMASL [Peptide (b), peptide designed on the portion of human-derived sheathlin protein corresponding to (a)]	comparable to or higher than that of BMP2	significantly increased	–	significant cell differentiation promoting effect	–	high cell differentiation promoting effect
